# Several values for one entry are separate records, joined by “and”; a condition that tells them apart may be missing. Identical values can stand only once. Like-named read-outs stand apart in the source and are kept apart here.
# Columns and labels:
# U266 = test: Cell growth inhibition (resazurin), U266; settings: for EC50: 48 hours drug exposure
# OVCAR-3 = test: Cell growth inhibition (resazurin), OVCAR-3; settings: for EC50: 48 hours drug exposure
# NF-κB = test: NF-κB-mediated luciferase reporter gene assay, HEK293 NF-κB/Luc cells, TNF-α stimulation; format: cell-based, human; settings: for EC50: Homo sapiens
# Experimental: The HEK293 NF-κB/luciferase reporter cell line is a derivative of the human embryonic kidney cell line (ATCC; CRL-1573) and carries a luciferase reporter gene under the regulation of 5× NF-κB binding sites. […] When performing the luciferase assay, the DMEM basal medium was replaced with phenol-red free DMEM basal medium and the G418 was omitted.
# For NF-κB-mediated luciferase assays, HEK293 NF-κB/luciferase cells were seeded at 1.5×10^4 cells/well in 90 μl phenol-red free DMEM complete medium into Corning 3917 white opaque-bottom tissue culture plates. For Formula II-2, Formula II-4, Formula II-5A, and Formula II-18, a 400 μM starting dilution was made in 100% DMSO and this dilution was used to generate a 8-point half log dilution series. […] For Formula II-20, a 2.5 mM or 8 mM starting solution was made in 100% DMSO and the final test concentrations ranged from 6.3 μM to 2.0 nM or 20 μM to 6.3 nM, respectively. The plates were returned to the incubator for 1 hour. After 1 hr pretreatment, 10 μl of a 50 ng/ml TNF-α solution, prepared in the phenol-red free DMEM medium was added, and the plates were incubated for an additional 6 hr.
# At the end of the TNF-α stimulation, 100 μl of Steady Lite HTS luciferase reagent (Packard Bioscience) was added to each well and the plates were left undisturbed for 10 min at room temperature before measuring the luciferase activity. The relative luciferase units (RLU) were measured by using a Fusion microplate fluorometer (Packard Bioscience).
# NCI-H292 = test: Cell growth inhibition (resazurin), NCI-H292
# [1] = target: T1, trypsin-like activity of purified rabbit muscle 20S proteasome (Oryctolagus cuniculus, UniProt G1SWK8); test: In vitro inhibition of 20S proteasome trypsin-like activity (Boc-LRR-AMC); settings: under the conditions tested
# T1 sequence (G1SWK8 1-271): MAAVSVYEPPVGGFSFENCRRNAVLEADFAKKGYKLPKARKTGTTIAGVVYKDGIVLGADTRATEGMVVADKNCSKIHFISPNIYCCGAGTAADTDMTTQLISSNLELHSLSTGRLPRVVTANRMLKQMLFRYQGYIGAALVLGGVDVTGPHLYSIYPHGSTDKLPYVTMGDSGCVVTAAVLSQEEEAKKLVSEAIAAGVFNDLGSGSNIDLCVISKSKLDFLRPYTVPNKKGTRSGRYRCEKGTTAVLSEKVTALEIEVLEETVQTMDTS
# HT-29 = test: Cell growth inhibition (resazurin), HT-29
# [2] = target: T2, caspase-like activity of purified rabbit muscle 20S proteasome (Oryctolagus cuniculus, UniProt A0A5F9DQW2); test: In vitro inhibition of 20S proteasome caspase-like activity (Z-LLE-AMC)
# T2 sequence (A0A5F9DQW2 1-212): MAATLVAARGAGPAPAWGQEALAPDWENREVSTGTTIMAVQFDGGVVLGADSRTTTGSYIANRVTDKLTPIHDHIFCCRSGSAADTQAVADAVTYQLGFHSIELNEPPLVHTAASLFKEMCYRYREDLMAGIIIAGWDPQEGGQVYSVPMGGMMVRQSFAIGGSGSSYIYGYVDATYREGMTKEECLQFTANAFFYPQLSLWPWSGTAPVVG
# RPMI 8226 = test: Cell growth inhibition (resazurin), RPMI 8226
# PC-3 = test: Cell growth inhibition (resazurin), PC-3; format: cell-based, human
# [3] = target: T3, chymotrypsin-like activity of purified rabbit muscle 20S proteasome (Oryctolagus cuniculus, UniProt G1T4Q9); test: In vitro inhibition of 20S proteasome chymotrypsin-like activity (suc-LLVY-AMC)
# T3 sequence (G1T4Q9 1-263): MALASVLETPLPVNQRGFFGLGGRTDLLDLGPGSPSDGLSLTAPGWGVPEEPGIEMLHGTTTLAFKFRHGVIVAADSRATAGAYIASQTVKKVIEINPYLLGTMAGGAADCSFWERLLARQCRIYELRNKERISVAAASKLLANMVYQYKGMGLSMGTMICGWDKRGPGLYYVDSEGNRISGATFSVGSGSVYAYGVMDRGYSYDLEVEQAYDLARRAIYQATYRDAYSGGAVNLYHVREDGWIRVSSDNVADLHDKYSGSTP
# B16-F10 = test: Cell growth inhibition (resazurin), B16-F10
# MDA-MB-231 = test: Cell growth inhibition (resazurin), MDA-MB-231
# [4] = target: T1, trypsin-like activity of purified rabbit muscle 20S proteasome; test: biochemical
smiles,measurement,setting,value
"C[C@@]12OC(=O)[C@]1(C(O)[C@@H]1C=CCCC1)NC(=O)[C@@H]2CCI (single isomer, unassigned) [Formula II-19]",EC50,"U266; Homo sapiens, U-266, 48 h, read-out: EC50 against U266, Table 1",3.2 nM
same,EC50,"U266; Homo sapiens, U-266, 48 h, read-out: U266 EC50, Table 2",3.2 nM
same,"cytotoxicity against U266, in words",U266; from EC50 values,cytotoxic
same,EC50,"U266; read-out: EC50 against U266, Table 1",3.4 nM
same,EC50,"U266; read-out: U266 EC50, Table 2",3.4 nM
same,EC50,"OVCAR-3; Homo sapiens, OVCAR-3, 48 h, read-out: EC50 against OVCAR-3, Table 1",24 nM
same,"cytotoxicity against OVCAR-3, in words",OVCAR-3; from EC50 values,cytotoxic
same,EC50,"OVCAR-3; read-out: EC50 against OVCAR-3, Table 1",20 nM
same,EC50,"NF-κB; HEK293, read-out: EC50, NF-κB-mediated luciferase reporter gene assay, Table 5, values in nM, 1 hr pretreatment, TNF-α 6 hr",7 nM
same,EC50,"NF-κB; HEK293, read-out: NF-κB EC50, Table 12",10 nM
same,"effect on luciferase activity upon TNF-α stimulation, in words",NF-κB; pretreatment of NF-κB/Luc 293 cells,dose-dependent decrease
same,EC50,"NCI-H292; Homo sapiens, NCI-H292, 48 h, read-out: EC50 against NCI-H292, Table 1, 48 hours drug exposure, mean ± SD where n≥3",27 ± 3.8 nM
same,"cytotoxicity against NCI-H292, in words",NCI-H292; from EC50 values,cytotoxic
same,"inhibition of the trypsin-like activity of the 20S proteasome, in words",[1],able to inhibit
same,EC50,"HT-29; Homo sapiens, HT-29, 48 h, read-out: EC50 against HT-29, Table 1, 48 hours drug exposure, mean ± SD where n≥3",11 ± 1.6 nM
same,"cytotoxicity against HT-29, in words",HT-29; from EC50 values,cytotoxic
same,EC50,"[2]; EC50 Caspase-like, Table 6, values in nM",573 nM and 739 nM
same,EC50,"[2]; EC50 values, caspase-like activity, summary of Table 6",213 to 850 nM
same,EC50,"[2]; Proteasome Caspase-like EC50, Table 12",573 nM and 739 nM
same,EC50,"RPMI 8226; Homo sapiens, RPMI-8226, 48 h, read-out: EC50 against RPMI 8226, Table 1, 48 hours drug exposure",5.9 nM
same,EC50,"RPMI 8226; Homo sapiens, RPMI-8226, 48 h, read-out: RPMI 8226 EC50, Table 2, 48 hours drug exposure, mean ± SD where n≥3",5.9 nM
same,EC50,"RPMI 8226; Homo sapiens, RPMI-8226, read-out: Cytotoxicity RPMI EC50, Table 12",6 nM
same,"cytotoxicity against RPMI 8226, in words",RPMI 8226; from EC50 values,cytotoxic
same,EC50,"RPMI 8226; read-out: Cytotoxicity RPMI EC50, Table 12",7 nM
same,EC50,"RPMI 8226; read-out: EC50 against RPMI 8226, Table 1, 48 hours drug exposure",7.1 nM
same,EC50,"RPMI 8226; read-out: RPMI 8226 EC50, Table 2, 48 hours drug exposure, mean ± SD where n≥3",7.1 nM
same,EC50,"PC-3; Homo sapiens, PC-3, 48 h, Table 1, 48 hours drug exposure, mean ± SD where n≥3, read-out: EC50 against PC-3",29 ± 4 nM
same,"cytotoxicity against PC-3, in words",PC-3; from EC50 values,cytotoxic
same,EC50,"[3]; EC50 Chymotrypsin-like, Table 6, values in nM",3 nM
same,EC50,"[3]; Proteasome Chymotrypsin-like EC50, Table 12",3 nM
same,EC50,"B16-F10; Mus musculus, B16-F10, 48 h, read-out: EC50 against B16-F10, Table 1, 48 hours drug exposure, mean ± SD where n≥3",13 ± 1.9 nM
same,"cytotoxicity against B16-F10, in words",B16-F10; from EC50 values,cytotoxic
same,EC50,"MDA-MB-231; Homo sapiens, MDA-MB-231, 48 h, read-out: EC50 against MDA-MB-231, Table 1, 48 hours drug exposure, mean ± SD where n≥3",14 ± 3.2 nM
same,"cytotoxicity against MDA-MB-231, in words",MDA-MB-231; from EC50 values,cytotoxic
same,EC50,[4],13 nM and 15 nM
